From patent US5254533A, “Elfamycin” (Rhone-Poulenc Rorer S.A., priority 1990, dated 1993)

Tests used:
[1] = Use as a growth factor in weaned piglets (Example 5); format: in vivo, weaned Large-White Belgian Landrace crossed piglets; details: for Weight gain / Consumption / Intermediate Weight / Initial weight / Index of consumption: 40 ppm in feed; for Initial weight: start of period 14-28 days; for Index of consumption: consumption/weight gain ratio
[2] = Use as a growth factor in piglets (Example 6); format: in vivo, weaned Large-White Belgian Landrace crossed piglets; details: 40 ppm in feed; for Final weight: control 24.7
Excerpt: 130 weaned Large-White Belgian Landrace crossed piglets were used. The experiment began 2 weeks after weaning of the animals, i.e. at a mean age of 42 days.
The animals received the experimental feed ad libitum in the form of granules 2.5 mm in diameter.
The animals were weighed at the beginning, middle and end of the experiment. The consumptions were noted every week.
Tables 7, 8 and 9 respectively show the percentage composition and the characteristics of the diets, the percentage composition of the CMV and the percentage composition of the premixes.
The results are shown in Table 10 for the period 0-14 days, Table 11 for the period 14-28 days and Table 12 for the period 0-28 days.

[3] = Table 4, 0-14 days, control 15.3
[4] = Table 5, 14-28 days, control 23.1
[5] = Table 6, 0-28 days, control 23.1

Molecule | Weight gain ([1]; 0-14 days, control 329) [g/day] | Consumption ([1]; 0-14 days, control 614) [g/day] | Weight gain ([1]; 0-28 days, control 445) [g/day] | Consumption ([1]; 0-28 days, control 822) [g/day] | Weight gain ([1]; 14-28 days, control 560) [g/day] | Consumption ([1]; 14-28 days, control 1031) [g/day] | Intermediate Weight [1, 3] [kg] | Intermediate Weight [1, 4] [kg] | Intermediate Weight [1, 5] [kg] | Initial weight ([1]; control 15.3) [kg] | Index of consumption ([1]; 0-14 days, control 1.88) | Index of consumption ([1]; 0-28 days, control 1.85) | Index of consumption ([1]; 14-28 days, control 1.86) | further results
CC[C@H]1OC(=O)C[C@@H](O)[C@H](C)[C@@H](O[C@@H]2O[C@H](C)[C@@H](O[C@H]3C[C@@](C)(O)[C@@H](O)[C@H](C)O3)[C@H](N(C)C)[C@H]2O)[C@@H](CC=O)C[C@@H](C)C(=O)/C=C/C(C)=C/[C@@H]1CO[C@@H]1O[C@H](C)[C@@H](O)[C@@H](OC)[C@H]1OC [tylosin, reference compound] | 351 | 619 | 470 | 826 | 588 | 1033 | 15.6 | 23.8 | 23.8 | 15.6 | 1.79 | 1.76 | 1.76 | –
spiramycin embonate [reference compound] | 393 | 668 | 518 | 908 | 647 | 1147 | 16.3 | 25.4 | 25.4 | 16.3 | 1.72 | 1.75 | 1.79 | effect on consumption (in words) ([1]; first period 0-14 days): increase in consumption; effect on consumption (in words) ([1]; overall period 0-28 days): significantly increased; effect on growth (in words) ([1]; overall period 0-28 days, relative to basic diet): significantly increased; effect on growth (in words) ([1]; second period 14-28 days): significantly improved; Index of consumption ([2]; 0-14 days, control 1.76): 1.70; Weight gain ([2]; 0-14 days, control 368): 423 g/day; Consumption ([2]; 0-14 days, control 645): 715 g/day; Index of consumption ([2]; 0-28 days, control 1.80): 1.73; Weight gain ([2]; 0-28 days, control 474): 532 g/day; Consumption ([2]; 0-28 days, control 852): 923 g/day; Index of consumption ([2]; 14-28 days, control 1.84): 1.77; Weight gain ([2]; 14-28 days, control 579): 640 g/day; Consumption ([2]; 14-28 days, control 1059): 1130 g/day; Final weight ([2]; Table 11, 14-28 days): 26.3 kg; Final weight ([2]; Table 12, 0-28 days): 26.3 kg
